Measured values from patent US20100179158A1, “INHIBITORS OF CYCLIC AMP PHOSPHODIESTERASES” (priority 2007, published 2010).

Target: T1, PDE4A5 (Rattus norvegicus, UniProt P54748)
T1 construct: targets used in the assays are full-length proteins (as opposed to simply the catalytic domain); expressed in transfected cells; host or cells: Schizosaccharomyces pombe, gene integrated at the cgs2 locus
T1 sequence (P54748 1-844): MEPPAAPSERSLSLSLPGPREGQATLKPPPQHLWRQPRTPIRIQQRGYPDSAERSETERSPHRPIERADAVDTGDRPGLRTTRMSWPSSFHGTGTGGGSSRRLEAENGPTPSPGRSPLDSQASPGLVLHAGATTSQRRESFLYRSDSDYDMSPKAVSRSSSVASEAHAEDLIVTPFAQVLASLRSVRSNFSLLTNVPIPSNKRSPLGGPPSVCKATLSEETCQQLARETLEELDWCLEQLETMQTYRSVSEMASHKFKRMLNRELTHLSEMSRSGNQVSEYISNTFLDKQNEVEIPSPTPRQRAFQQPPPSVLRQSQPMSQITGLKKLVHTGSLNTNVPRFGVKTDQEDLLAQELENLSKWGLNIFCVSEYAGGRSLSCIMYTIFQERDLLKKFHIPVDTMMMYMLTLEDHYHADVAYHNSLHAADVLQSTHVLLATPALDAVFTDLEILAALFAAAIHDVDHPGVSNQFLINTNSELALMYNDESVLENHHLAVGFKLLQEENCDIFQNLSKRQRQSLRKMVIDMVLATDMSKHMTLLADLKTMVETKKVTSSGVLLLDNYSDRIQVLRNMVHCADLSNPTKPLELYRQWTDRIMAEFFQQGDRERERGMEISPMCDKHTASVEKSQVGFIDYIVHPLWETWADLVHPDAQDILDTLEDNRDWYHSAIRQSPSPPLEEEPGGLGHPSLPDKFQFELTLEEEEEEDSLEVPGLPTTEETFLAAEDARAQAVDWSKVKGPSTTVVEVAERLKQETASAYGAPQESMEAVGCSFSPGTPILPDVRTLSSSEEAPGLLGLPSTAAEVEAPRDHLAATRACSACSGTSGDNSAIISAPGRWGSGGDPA
Assay: Fission yeast 5FOA growth assay, strain expressing PDE4A5
Assay type: cell-based
Details: 5FOA growth screen; for 2 Assay (2 uM), PDE 4A5: 2 uM compound; for 1 Assay (20 uM), PDE 4A5: 20 uM compound
Procedure: High throughput drug screens were carried out at the Broad Institute's Chemical Biology Program screening facility (Broad Institute, Cambridge, Mass.). Depending upon the strain, cultures were pregrown to exponential phase in EMM complete medium containing from 0.5 to 2.5 mM cAMP to repress fbp1-ura4 transcription. Cells were collected by centrifugation, resuspended in 5FOA medium, and 25 μl were transferred to 384-well microtiter dishes (untreated, with flat clear bottoms) that had been pre-filled with 25 μl 5FOA medium and pre-pinned with 100 nl of compounds (stock solutions were generally 10 mM) from a subset of the Prestwick Bioactive and the Microsource Spectrum compound libraries. Starting cell concentrations ranged from 0.5×10^5 to 4×10^5 cells/ml depending on the screening strain. […] Other positive control dishes contained 5 mM cAMP in the 5FOA medium. Cultures were grown for 48 hours at 30° C., sealed in an airtight container with moist paper towels to prevent evaporation. Optical densities (OD600) of cultures were measured using a microplate reader. Bioinformatic analysis of the results to determine composite Z scores was performed as previously described^30, 31.
Cells were pregrown in EMM medium [MP Biomedicals (Solon, OH), 3% glucose, filter-sterilized to avoid carmelization, which would introduce variability into the optical density of the medium] containing from 0 mM to 2.5 mM cAMP (or either 0.5 mM or 1.0 mM cGMP). This was to repress expression of the fbp1-ura4 reporter prior to exposure of cells to 5FOA medium. Cells were grown at 30° C. to exponential phase (approximately 10^7 cells/ml). Cells were collected by centrifugation and resuspended in 5FOA medium, and 25 μl were transferred to 384-well microtiter dishes (untreated, with flat clear bottoms) that had been pre-filled with 25 μl 5FOA medium and pre-pinned with 100 nl of compounds (stock solutions were generally 10 mM). Starting cell concentrations ranged from 0.5×10^5 to 4×10^5 cells/ml depending on the screening strain. […] Other positive control dishes contained 5 mM cAMP in the 5FOA medium for PDEs that lack appropriate control compounds. Cultures were grown for 48 hours at 30° C., sealed in an airtight container with moist paper towels to prevent evaporation. Optical densities (OD600) of cultures were measured using a microplate reader. Bioinformatic analysis of the results to determine composite Z scores was performed as previously described (1, 3).

Structure (SMILES) | 2 Assay (2 uM), PDE 4A5 | 1 Assay (20 uM), PDE 4A5
COC(=O)C1=C(C)N(C2CCCCC2)C(=O)/C1=C\c1cccs1 [Compound 22] | 13.66 | −0.06
COC(=O)C1=C(C)N(c2ccccc2F)C(=O)/C1=C\c1cccc(OC)c1O [2008, C21] | – | 1.80 ND ND ND ND
Cc1ccc2c(c1)c1nc3ccccc3nc1n2C(C)C [Compound 41] | – | 84.08

Further lines, results first:

2 Assay (2 uM), PDE 4A5 | 1 Assay (20 uM), PDE 4A5 | Structure (SMILES)
– | 1.73 ND ND ND ND | COC(=O)C1=C(C)N(c2ccc(C(C)C)cc2)C(=O)/C1=C\c1cccs1 [2008, O19]
12.63 | 65.67 | COC(=O)C1=C(C)N(c2ccccc2Cl)C(=O)/C1=C\c1cccs1 [Compound 27]
– | −0.06 ND ND ND ND | COC(=O)C1=C(C)N(c2ccccc2)/C(=C/c2cccs2)C1=O [2008, K19]
